# Measurements reported in patent US10307418B2, “Azole pharmaceutical formulations for parenteral administration and methods for preparing and using the same as treatment of diseases sensitive to azole compounds” (Platform Brightworks Two, Ltd., priority 2010, dated 2019).
# Experiments:
# [1] = Stability of ITZA/POSA in solvent vehicles (HPLC); format: physicochemical
# [2] = mouse, in vivo, 5 mg/kg
# Procedure: (§2) Swiss Webster mice were used for pharmacokinetic studies of ITZA and its analogs. The dilation of the vein was accomplished by warming up the mice using a heat lamp. […] Mice were allowed to recover and blood samples were obtained through cardiac puncture under general anesthesia with Isoflurane/oxygen by vaporizer at various time points. Plasma was obtained by centrifugation of blood sample at 3,200 rpm for 5 min. at 4° C. Plasma proteins were precipitated by adding acetonitrile (twice the volume of plasma). The mixture was vortexed for 30 seconds and centrifuged for 5 min. at 14,000 rpm. The supernatant was saved and was injected into the HPLC to determine the respective drug concentrations.
# (§3) Unless specified, the analogous experiments were performed using POSA as an alternative to ITZA; Swiss Webster mice of both sexes with a body weight of 25-30 g were used for the in vivo pharmacology experiments (Harlan-Sprague-Dawley, Houston, Tex.). The animals were allowed a minimum of 7 days after arrival to accommodate to the new environment and allowed free access to commercial feed and tap water prior to and during the experimentation period. The animals were housed in an Association for the Assessment and Accreditation of Laboratory Animal Care International (AAALAC)-approved facility that meets the requirements of the USDA, NIH, and DHHS.
# (§4) The ITZA dose of 5 mg/kg BW was determined to be a suitable test dose that could be administered to the mice as a slow (3-4 min) IV bolus injection without requiring sedation, but could be performed with only minimal physical restraint of the animals in a standard funnel-type cage.
# (§5) The ITZA was formulated in the H3 solvent system described above as the preferred solvent to a stock concentration of 4-5 mg/mL and then diluted with NS (ratio 1:1) so the intended dose (5.0 mg/kg BW) could be injected in a tail vein in a total volume of approximately 100 μL. […] No sedative premedication was used for the mice in this experiment to avoid the possible induction of microsomal liver enzymes that could modify ITZA metabolism. Thus, the animals were unanesthetized, being only physically restrained during and immediately following the drug injection.
# (§6) Blood samples (0.5-1.0 mL) were drawn through cardiac puncture into heparinized tubes at selected time points prior to the drug infusion (“blank”), and from 5 min to 1 hour after drug injection for determination of ITZA concentrations, and for 5 min to about 7 hrs in the POSA experiment. The mice were exposed to 2% -4% isoflurane for general anesthesia. Blood samples were obtained through cardiac puncture and immediately deposited in heparinized microcentrifuge tubes.
# [3] = cited from earlier work
# [4] = Stability of ITZA/POSA in solvent vehicles (HPLC); format: physicochemical
# Procedure: The ITZA in solvent H3 was incubated in sealed tubes. […] For both short-term and long-term stability studies, triplicate samples at various time points were analyzed quantitatively by HPLC after appropriate dilutions. In the next step the stability of ITZA (at approximately 4 mg/mL) in a preferred composite solvent at a clinically relevant stock concentration by itself, and after dilution with a similar volume of a clinically acceptable infusion fluid, was determined at room temperature. ITZA was dissolved at a final stock concentration of 2-6 mg/mL in benzyl alcohol with acidified EtOH/PEG-400 (prototype ITZA stock solvent vehicle) and incubated at RT and at 40° C. The resulting ITZA concentrations were measured by HPLC in samples taken immediately after solubilization, then hourly for 8 hours, and then at gradually increasing time intervals for up to several days (weeks), depending on the initial rate of solubilization/degradation in the respective solvent system.
# [5] = tested on: Candida parapsilosis; test: Yeast susceptibility test, MIC (CLSI standard); format: cell-based; conditions: tested range 38 μg/mL to 0.03 μg/mL, read out at 24 hours, average of three experiments
# Procedure: (§1) Briefly, susceptibility tests were set-up using a standardized methodology (CLSI […] standard). Drugs were diluted into RPMI-Mops medium (Yeast One Broth (Sensititer, product Y3462, Trek Diagnostic Systems, Cleveland, Ohio) Sensititer Lot number 151416SA-expiration date 2011-01). Two different strains of yeast were tested, the standardized evaluation/read out was performed at 24 hours after the start of each culture. The tests were repeated twice and all MIC (minimum inhibitory concentration) values are reported as an average of the three experiments.
# [6] = tested on: Candida cruzei (ATCC strain 6258); test: Yeast susceptibility test, MIC (CLSI standard); format: cell-based; conditions: tested range 38 μg/mL to 0.03 μg/mL, read out at 24 hours, average of three experiments
# Procedure: as §1
# [7] = Plasma pharmacology after IV injection in mice; conditions: IV dose of 5 mg/kg
# Procedure: as §2, §3, §4, §5, §6
smiles,measurement,setting,value
"CCC(C)n1ncn(-c2ccc(N3CCN(c4ccc(OCC5COC(Cn6cncn6)(c6ccc(Cl)cc6Cl)O5)cc4)CC3)cc2)c1=O (stereo not shown) [ITZA, itraconazole]",Stability (%),"[1]; Solvent H3G, 8 hr",98%
same,Stability (%),"[1]; Solvent H3G, 24 hr",103%
same,Stability (%),"[1]; parent solvent H3, approximately 4 mg/mL, room temperature, 14 (2 w)",83%
same,Stability (%),"[1]; parent solvent H3, approximately 4 mg/mL, room temperature, 21 (3 w)",79%
same,Stability (%),"[1]; parent solvent H3, approximately 4 mg/mL, room temperature, 28 (4 w)",75%
same,Stability (%),"[1]; parent solvent H3, approximately 4 mg/mL, room temperature, 35 (5 w)",77%
same,Stability (%),"[1]; parent solvent H3, approximately 4 mg/mL, room temperature, 49 (7 w)",79%
same,Stability (%),"[1]; parent solvent H3, approximately 4 mg/mL, room temperature, 63 (9 w)",75%
same,Stability (%),"[1]; parent solvent H3, approximately 4 mg/mL, room temperature, 24 hrs",99%
same,Stability (%),"[1]; parent solvent H3, approximately 4 mg/mL, room temperature, 72 hrs",95%
same,Stability (%),"[1]; parent solvent H3, approximately 4 mg/mL, room temperature, 96 hrs",88%
same,Stability (%),"[1]; parent solvent H3, approximately 4 mg/mL, room temperature, 11 days",77%
same,Stability (%),"[1]; parent solvent H3, approximately 4 mg/mL, room temperature, time 0",100%
same,Stability (%),"[1]; solvent H3, approximately 4 mg/mL, 40° C., 3 hr",104%
same,Stability (%),"[1]; solvent H3, approximately 4 mg/mL, 40° C., 6 hr",98%
same,Stability (%),"[1]; solvent H3, approximately 4 mg/mL, 40° C., 24 hr",92%
same,Stability (%),"[1]; solvent H3, approximately 4 mg/mL, 40° C., 30 hr",89%
same,Stability (%),"[1]; solvent H3, approximately 4 mg/mL, 40° C., 48 hr",84%
same,Stability (%),"[1]; solvent H3, approximately 4 mg/mL, 40° C., 54 hr",79%
same,Stability (%),"[1]; solvent H3, approximately 4 mg/mL, 40° C., 78 hr",80%
same,Stability (%),"[1]; solvent H3, approximately 4 mg/mL, 40° C., 4 days",78%
same,Stability (%),"[1]; solvent H3, approximately 4 mg/mL, 40° C., 7 days",70%
same,Stability (%),"[1]; solvent H3, approximately 4 mg/mL, 40° C., 8 days",70%
same,Stability (%),"[1]; solvent H3, approximately 4 mg/mL, 40° C., 9 days",58%
same,Stability (%),"[1]; solvent H3, approximately 4 mg/mL, 40° C., 14 days",56%
same,Stability (%),"[1]; solvent H3, approximately 4 mg/mL, 40° C., 16 days",55%
same,Stability (%),"[1]; solvent H3, approximately 4 mg/mL, 40° C., 18 days",54%
same,Stability (%),"[1]; solvent H3, approximately 4 mg/mL, 40° C., 21 days",45%
same,Stability (%),"[1]; solvent H3, approximately 4 mg/mL, 40° C., 25 days",37%
same,Stability (%),"[1]; solvent H3, approximately 4 mg/mL, 40° C., 28 days",30%
same,Stability (%),"[1]; solvent H3, approximately 4 mg/mL, 40° C., 32 days",24%
same,Stability (%),"[1]; solvent H3/normal saline (1:1), approximately 2.0 mg/mL, RT, 0 hrs",100%
same,Stability (%),"[1]; solvent H3/normal saline (1:1), approximately 2.0 mg/mL, RT, 2 hrs",97%
same,Stability (%),"[1]; solvent H3/normal saline (1:1), approximately 2.0 mg/mL, RT, 4 hrs",97%
same,Stability (%),"[1]; solvent H3/normal saline (1:1), approximately 2.0 mg/mL, RT, 8 hrs",102%
same,Stability (%),"[1]; solvent H3/normal saline (1:1), approximately 2.0 mg/mL, RT, 14 hrs",109%
same,Stability (%),"[1]; solvent H3/normal saline (1:1), approximately 2.0 mg/mL, RT, 24 hrs",93%
same,tolerability of IV injection (in words),[2],well accepted
same,known plasma half-life,"[3]; literature (Ref 24, 32, 42, 45)",10 to 11 h
same,bioavailability,"[3]; oral preparations, literature",approximately 50%
same,Stability (% remaining),"[4]; 2 mg/mL, normal saline as final dilution solution, at least 24 hours at RT",more than 90%
same,stability of ITZA,"[4]; H3D/5% dex., day 3",108%
same,stability of ITZA,"[4]; H3D/sal., day 4",102%
same,stability of ITZA,"[4]; H3G/10% dex., day 1",102%
same,Stability (%),"[4]; parent solvent H3, approximately 4 mg/mL, room temperature, 48 hrs",96%
same,Stability (%),"[4]; parent solvent H3, approximately 4 mg/mL, room temperature, 7 days (1 w)",91%
same,Stability (%),"[4]; parent solvent H3, approximately 4 mg/mL, room temperature, 9 days",84%
same,Stability (%),"[4]; parent solvent H3, approximately 4 mg/mL, room temperature, 18 days",80%
same,Stability (%),"[4]; solvent H3, approximately 4 mg/mL, 40° C., 72 hr",76%
same,Stability (%),"[4]; solvent H3, approximately 4 mg/mL, 40° C., 10 days",59%
same,Stability (%),"[4]; solvent H3, approximately 4 mg/mL, 40° C., 11 days",58%
same,Stability (%),"[4]; solvent H3, approximately 4 mg/mL, 40° C., time 0",100%
same,Stability (%),"[4]; solvent H3/normal saline (1:1), approximately 2.0 mg/mL, RT, 6 hrs",101%
same,MIC,[5],0.03 µg/mL
same,MIC,[5]; listed as ITZA*,0.07 µg/mL
same,MIC,[6],0.07 µg/mL
same,MIC,[6]; listed as ITZA*,0.15 µg/mL
same,time plasma concentrations remain in the fungi-toxic range,[7],in excess of one hour
